Values joined by “and” are separate entries in the source; they are usually repeats but may differ in a detail not shown here. Equal values may be shown once.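 Test compounds were applied to cells in 96-well plates for 48 hours at 5 doses. The concentration for 50% growth inhibition is given as GI50. TGI marks complete inhibition of growth.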 Some results are limits rather than exact numbers.

Some test systems named below: COLO 205 colon; IGROV1 ovarian; KM12 colon; MALME-3M melanoma; NCI-H23 lung; OVCAR-3 ovarian; RPMI-8226 leukemia; SF-295 CNS; SK-MEL-5 melanoma; A498 renal.
Assay in all cases: growth of human tumour cells (NCI), 48 h

Take `Cc1cc2c(=O)cc(-c3ccc(Cl)cc3Cl)oc2c(C(=O)O)c1C`: the TGI in the experiment on COLO 205 colon, in the experiment with IGROV1 ovarian, in the experiment with KM12 colon, with MALME-3M melanoma, with NCI-H23 lung and in the experiment on OVCAR-3 ovarian was above 100 µM throughout. Besides, the TGI with RPMI-8226 leukemia, in the experiment on SF-295 CNS and in the experiment on SK-MEL-5 melanoma was above 100 µM throughout.

Take `CC(=O)NS(=O)(=O)c1ccc(-n2nc(-c3ccccc3)cc2-c2cc(O)ccc2O)cc1`: the GI50 in the experiment with COLO 205 colon was 44 µM; in the experiment on IGROV1 ovarian, above 100 µM; in the experiment with KM12 colon it was above 100 µM; with NCI-H23 lung, above 100 µM; in the experiment with OVCAR-3 ovarian, above 100 µM; with RPMI-8226 leukemia it was above 100 µM. Besides, the GI50 in the experiment on SF-295 CNS and in the experiment on SK-MEL-5 melanoma was above 100 µM each time. In addition, the TGI in the experiment with COLO 205 colon, in the experiment with IGROV1 ovarian, in the experiment with KM12 colon, with NCI-H23 lung, in the experiment on OVCAR-3 ovarian and in the experiment on RPMI-8226 leukemia was above 100 µM each time. Besides, the TGI with SF-295 CNS and in the experiment on SK-MEL-5 melanoma was above 100 µM throughout.

`C#CCOCCCC(=O)O`: the TGI with A498 renal, in the experiment with COLO 205 colon, in the experiment on IGROV1 ovarian, in the experiment on NCI-H23 lung, in the experiment with OVCAR-3 ovarian and with RPMI-8226 leukemia was above 100 µM throughout. Besides, the TGI in the experiment on SF-295 CNS and in the experiment with SK-MEL-5 melanoma was above 100 µM each time.

On to `COc1cc(C)cc(C(=O)OCc2ccccc2)c1C1=C(Cl)C(=O)C(Cl)=CC1=O`, for which the TGI in the experiment on COLO 205 colon, with IGROV1 ovarian, with KM12 colon, in the experiment on MALME-3M melanoma, in the experiment on NCI-H23 lung and with OVCAR-3 ovarian was above 10 µM each time. For the same compound, the TGI in the experiment with RPMI-8226 leukemia, in the experiment with SF-295 CNS and in the experiment on SK-MEL-5 melanoma was above 10 µM each time.

Turning to `Cc1cc2c(=O)cc(-c3ccc(Cl)c(Cl)c3)oc2c(C(=O)O)c1C`, the TGI in the experiment on COLO 205 colon, in the experiment with IGROV1 ovarian, with KM12 colon, in the experiment on MALME-3M melanoma, in the experiment on NCI-H23 lung and in the experiment with OVCAR-3 ovarian was above 100 µM each time. Further, the TGI in the experiment on RPMI-8226 leukemia, with SF-295 CNS and in the experiment with SK-MEL-5 melanoma was above 100 µM throughout.

Take `O=P1(O)c2ccccc2CSCc2ccccc21`: the TGI in the experiment on A498 renal, in the experiment with COLO 205 colon, in the experiment with IGROV1 ovarian, in the experiment with KM12 colon, with NCI-H23 lung and in the experiment with OVCAR-3 ovarian was above 100 µM in each case. Also, the TGI in the experiment on SF-295 CNS and in the experiment with SK-MEL-5 melanoma was above 100 µM throughout.

Regarding `CCOC(=O)Nc1ccc2c3c(cccc13)-c1ccccc1-2`, the GI50 is 4.68 µM in the experiment with A498 renal; 4.25 µM in the experiment on COLO 205 colon; 1.98 µM in the experiment on IGROV1 ovarian; 2.32 µM with KM12 colon; 98.1 µM with NCI-H23 lung; 2.72 µM in the experiment on OVCAR-3 ovarian. The GI50 with RPMI-8226 leukemia is 5.51 µM; with SF-295 CNS, 2.82 µM; in the experiment with SK-MEL-5 melanoma, 3.96 µM. The TGI in the experiment on A498 renal was above 100 µM; with COLO 205 colon, above 100 µM; with IGROV1 ovarian it was above 100 µM; in the experiment on KM12 colon, above 100 µM; in the experiment on NCI-H23 lung it was above 100 µM; in the experiment on OVCAR-3 ovarian, 8.92 µM. Moreover, the TGI in the experiment with RPMI-8226 leukemia is above 100 µM; in the experiment with SF-295 CNS it was 7.87 µM; in the experiment with SK-MEL-5 melanoma, above 100 µM.

For the compound `COc1ccc(C(=O)O[C@@H]2CCN3CC[C@H](C)[C@H]23)cc1`, the TGI with A498 renal, in the experiment with COLO 205 colon, in the experiment with IGROV1 ovarian, in the experiment with KM12 colon, in the experiment with NCI-H23 lung and in the experiment with OVCAR-3 ovarian was above 100 µM each time. Moreover, the TGI in the experiment on RPMI-8226 leukemia, with SF-295 CNS and in the experiment with SK-MEL-5 melanoma was above 100 µM throughout.

In the case of `O=C(NCCNc1nccc(-c2c(-c3ccc(F)cc3)nc3sccn23)n1)Nc1cccc(C(F)(F)F)c1`, the GI50 in the experiment with A498 renal was 10.7 µM; in the experiment with COLO 205 colon, 2.57 µM; in the experiment with IGROV1 ovarian it was 4.59 µM; in the experiment with KM12 colon it was 6.43 µM; in the experiment with NCI-H23 lung, 8.73 µM; with OVCAR-3 ovarian it was 17.7 µM. The GI50 was 3.52 µM with RPMI-8226 leukemia, 4.28 µM in the experiment on SF-295 CNS and 1.58 µM in the experiment with SK-MEL-5 melanoma. Moreover, the TGI in the experiment with A498 renal is 23.8 µM; in the experiment with COLO 205 colon, 7.73 µM; with IGROV1 ovarian it was 20 µM; in the experiment on KM12 colon, 23.9 µM; in the experiment with NCI-H23 lung, 26.4 µM; in the experiment with OVCAR-3 ovarian, 94.5 µM. Moreover, the results for the TGI in the experiment on RPMI-8226 leukemia, in the experiment with SF-295 CNS and in the experiment with SK-MEL-5 melanoma were 34 µM, 17.6 µM and 3.43 µM, respectively.

As for `COc1ncnn2ccc(-c3cnc4nc(C)n(Cc5nnc(C(C)F)o5)c4c3)c12` (stereo not given), the GI50 in the experiment on A498 renal was 0.163 µM; in the experiment on COLO 205 colon it was 0.11 µM; with IGROV1 ovarian it was 0.235 µM; in the experiment on KM12 colon it was 0.116 µM; in the experiment on MALME-3M melanoma, 0.264 µM; with NCI-H23 lung, 0.109 µM. The GI50 was 0.201 µM in the experiment on RPMI-8226 leukemia and 0.326 µM with SF-295 CNS. The TGI with A498 renal was 0.62 µM; in the experiment with COLO 205 colon it was 0.468 µM; in the experiment on IGROV1 ovarian, above 64.3 µM; with KM12 colon, above 100 µM; in the experiment on MALME-3M melanoma, 0.75 µM; with NCI-H23 lung it was 0.597 µM. In addition, the TGI in the experiment on RPMI-8226 leukemia was above 45.6 µM; in the experiment on SF-295 CNS it was 8.04 µM.

On to `Cc1cn2c(/C=N/NC3=NCCN3)c(-c3ccc(Cl)c([N+](=O)[O-])c3)nc2s1`, for which the GI50 in the experiment on A498 renal was 9.4 µM; in the experiment on COLO 205 colon, 1.43 µM; in the experiment on KM12 colon, 0.872 µM; in the experiment on NCI-H23 lung, 5.62 µM; in the experiment with RPMI-8226 leukemia it was 1.27 µM; in the experiment with SK-MEL-5 melanoma, 0.989 µM. Besides, the TGI in the experiment with A498 renal was 21.4 µM; in the experiment with COLO 205 colon it was above 50 µM; in the experiment with KM12 colon, 1.9 µM; with NCI-H23 lung it was 27 µM; in the experiment on RPMI-8226 leukemia it was above 50 µM; in the experiment on SK-MEL-5 melanoma it was 2.3 µM.

For `Cc1cc(S(=O)(=O)Nc2n[nH]c(-c3ccc(Cl)cc3)c2C#N)c(S)cc1Cl`, the GI50 in the experiment with COLO 205 colon, with IGROV1 ovarian, with KM12 colon, in the experiment on MALME-3M melanoma, in the experiment with NCI-H23 lung and with OVCAR-3 ovarian was above 100 µM each time. In addition, the GI50 in the experiment on RPMI-8226 leukemia, in the experiment with SF-295 CNS and with SK-MEL-5 melanoma was above 100 µM each time. Besides, the TGI in the experiment on COLO 205 colon, in the experiment on IGROV1 ovarian, with KM12 colon, in the experiment on MALME-3M melanoma, with NCI-H23 lung and in the experiment with OVCAR-3 ovarian was above 100 µM in each case. The TGI with RPMI-8226 leukemia, in the experiment with SF-295 CNS and in the experiment with SK-MEL-5 melanoma was above 100 µM in each case.

With `COc1c(O)cc2c(c1CC=C(C)C)OC(=O)c1c(cc(O)c(CC=C(C)C)c1O)O2`, the GI50 is 4.51 µM in the experiment with COLO 205 colon; 4.14 µM in the experiment with IGROV1 ovarian; 4.12 µM in the experiment on KM12 colon; 4.62 µM with MALME-3M melanoma; 3.45 µM in the experiment with NCI-H23 lung; 3.83 µM with OVCAR-3 ovarian. Also, the GI50 in the experiment on RPMI-8226 leukemia was 5.95 µM; in the experiment on SF-295 CNS, 4.32 µM; in the experiment with SK-MEL-5 melanoma, 4.24 µM. In addition, the TGI in the experiment on COLO 205 colon was 8.45 µM; in the experiment with IGROV1 ovarian, 7.91 µM; in the experiment with KM12 colon it was 7.71 µM; with MALME-3M melanoma, 8.7 µM; in the experiment with NCI-H23 lung, 8.29 µM; in the experiment with OVCAR-3 ovarian it was 7.2 µM. Also, the TGI came to 15.7 µM in the experiment on RPMI-8226 leukemia, 8.13 µM with SF-295 CNS and 7.91 µM in the experiment on SK-MEL-5 melanoma.

`NC(=S)N/N=C/c1cn(CCCl)c2ccccc12`: the TGI with COLO 205 colon, in the experiment with IGROV1 ovarian, with KM12 colon, in the experiment on MALME-3M melanoma, in the experiment on NCI-H23 lung and with OVCAR-3 ovarian was above 100 µM in each case. Further, the TGI in the experiment on RPMI-8226 leukemia is above 100 µM; with SF-295 CNS, above 100 µM; with SK-MEL-5 melanoma, 67.4 µM.

As for `Cc1ccccc1C(C#N)/C(=N/NC(N)=S)C(=O)Nc1c(C)cccc1C` (stereo not given), the TGI in the experiment with COLO 205 colon, in the experiment with IGROV1 ovarian, in the experiment on KM12 colon, with MALME-3M melanoma, in the experiment on NCI-H23 lung and in the experiment on OVCAR-3 ovarian was above 100 µM throughout. Moreover, the TGI with RPMI-8226 leukemia, in the experiment with SF-295 CNS and in the experiment with SK-MEL-5 melanoma was above 100 µM in each case.

In the case of `Nc1cc2c(c3ccccc13)C(CCl)CN2C(=O)c1cc2cc(NC(=O)c3cc4ccccc4o3)ccc2[nH]1` (stereo not given), the GI50 in the experiment on KM12 colon and with MALME-3M melanoma was above 0.11 µM each time. The TGI with KM12 colon is 0.0235 µM and < 0.11 µM; with MALME-3M melanoma, 0.00771 µM and < 0.11 µM; in the experiment on NCI-H23 lung, 0.027 µM and 0.125 µM.

On to `O=C(O)c1ccc(NCn2nc(-c3ccccc3O)oc2=S)cc1O`, for which the GI50 with COLO 205 colon was 42.6 µM; with IGROV1 ovarian, above 100 µM; with KM12 colon, above 100 µM; in the experiment with NCI-H23 lung, above 100 µM; with OVCAR-3 ovarian, above 100 µM; in the experiment on SF-295 CNS, above 100 µM. Moreover, in the experiment on SK-MEL-5 melanoma, the GI50 was above 100 µM. In addition, the TGI with COLO 205 colon, in the experiment on IGROV1 ovarian, in the experiment with KM12 colon, with NCI-H23 lung, in the experiment with OVCAR-3 ovarian and with SF-295 CNS was above 100 µM each time. In the experiment on SK-MEL-5 melanoma, this compound came in with a TGI above 100 µM.

The record behind these values is PubChem BioAssay (NCI).
